Measured values published in patent publication US20250235460A1, “COMBINATION THERAPY USING GLUCOSE-DEPENDENT INSULINOTROPIC POLYPEPTIDE RECEPTOR ANTAGONIST COMPOUNDS AND GLP-1 RECEPTOR AGONIST COMPOUNDS” (Pfizer Inc., priority 2024, published 2025).
Counter-ions that a name gives are not always drawn.

What was measured:
human GLP-1R [1] = molecular target: human GLP-1R (Homo sapiens, UniProt P43220, G168S); test: CHO GLP-1R Clone H6 cAMP HTRF agonist assay (Assay 1, high receptor density); assay type: cell-based; settings: for EC50: geometric mean; for Emax: CHO GLP-1R clone H6, arithmetic mean, relative to saturating GLP-1 (1 μM), read-out: Assay 1 Emax (%)
Outline: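 Two significant figures are used throughout. Each EC50 is the geometric mean of its replicates, and each Emax is the arithmetic mean.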

human GLP-1R [2] = molecular target: human GLP-1R (Homo sapiens, UniProt P43220, L260F); test: CHO GLP-1R Clone C6 cAMP HTRF agonist assay (Assay 2, low receptor density); assay type: cell-based; settings: for EC50: geometric mean; for Emax: CHO GLP-1R clone C6, arithmetic mean, relative to saturating GLP-1 (1 μM)
Description: In Table 5 and Table 6, assay data are presented to two (2) significant figures as the geometric mean (EC50s) and arithmetic mean (Emax) based on the number of replicates listed (Number). A blank cell means there was no data for that Example or the Emax was not calculated.

Chain of human GLP-1R (Homo sapiens, UniProt P43220, G168S) (P43220 24-463 G168S): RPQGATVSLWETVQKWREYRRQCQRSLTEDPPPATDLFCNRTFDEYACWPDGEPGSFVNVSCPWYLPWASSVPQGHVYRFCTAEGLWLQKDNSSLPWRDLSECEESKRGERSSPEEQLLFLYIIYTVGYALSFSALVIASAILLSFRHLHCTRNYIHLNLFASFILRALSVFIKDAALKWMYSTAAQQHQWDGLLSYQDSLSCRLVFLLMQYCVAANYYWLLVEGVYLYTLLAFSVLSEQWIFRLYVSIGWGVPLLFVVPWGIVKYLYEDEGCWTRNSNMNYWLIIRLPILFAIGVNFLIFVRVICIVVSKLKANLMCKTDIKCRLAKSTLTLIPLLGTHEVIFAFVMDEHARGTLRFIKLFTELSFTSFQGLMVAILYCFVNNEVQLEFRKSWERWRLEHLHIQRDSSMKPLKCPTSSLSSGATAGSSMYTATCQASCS
Chain of human GLP-1R (Homo sapiens, UniProt P43220, L260F) (P43220 24-463 L260F): as the sequence (P43220 24-463 G168S) above, with S145G, L237F counted along it

CC1CN(c2cccc(OCc3ccc(Cl)cc3F)n2)CCN1Cc1nc2ccc(C(=O)O)cc2n1Cc1cocn1 (stereo in doubt) [Compound 240B, 2-{[(2S)-4-{6-[(4-chloro-2-fluorobenzyl)oxy]pyridin-2-yl}-2-methylpiperazin-1-yl]methyl}-1-(1,3-oxazol-4-ylmethyl)-1H-benzimidazole-6-carboxylic acid]
EC50 (human GLP-1R [1]; CHO GLP-1R clone H6, cAMP HTRF): 0.5 nM
Emax (human GLP-1R [1]): 78%
EC50 (human GLP-1R [2]; CHO GLP-1R clone C6, cAMP HTRF): 16 nM
Emax (human GLP-1R [2]): 86%

CC1CN(c2cccc(OCc3ccc(C#N)cc3F)n2)CCN1Cc1nc2ccc(C(=O)O)cc2n1Cc1cnco1 (stereo in doubt) [Compound 242B, 2-{[(2S)-4-{6-[(4-cyano-2-fluorobenzyl)oxy]pyridin-2-yl}-2-methylpiperazin-1-yl]methyl}-1-(1,3-oxazol-5-ylmethyl)-1H-benzimidazole-6-carboxylic acid]
EC50 (human GLP-1R [1]; CHO GLP-1R clone H6, cAMP HTRF): 0.52 nM
Emax (human GLP-1R [1]): 70%
EC50 (human GLP-1R [2]; CHO GLP-1R clone C6, cAMP HTRF): 8.5 nM
Emax (human GLP-1R [2]): 78%

COCCn1c(C2CC23CCC(c2cccc4c2OC(C)(c2ccc(Cl)cc2F)O4)CC3)nc2ccc(C(=O)O)cc21 (stereo not drawn) [Compound 29B, 2-{6-[2-(4-chloro-2-fluorophenyl)-2-methyl-1,3-benzodioxol-4-yl]-6-azaspiro[2.5]oct-1-yl}-1-(2-methoxyethyl)-1H-benzimidazole-6-carboxylic acid, DIAST-Z2, trifluoroacetate salt]
EC50 (human GLP-1R [1]; CHO GLP-1R clone, cAMP HTRF): > 20000 nM
EC50 (human GLP-1R [2]; CHO GLP-1R clone, low receptor density, cAMP HTRF): > 20000 nM

O=C(O)c1ccc2nc(CN3CCC(c4cccc(OCc5ccc(Cl)cc5F)n4)CC3)n(C[C@@H]3CCO3)c2c1 [Compound 107B, 2-[(4-{6-[(4-chloro-2-fluorobenzyl)oxy]pyridin-2-yl}piperidin-1-yl)methyl]-1-[(2S)-oxetan-2-ylmethyl]-1H-benzimidazole-6-carboxylic acid]
EC50 (human GLP-1R [1]; CHO GLP-1R clone H6, cAMP HTRF): 81 nM
Emax (human GLP-1R [1]): 77%
EC50 (human GLP-1R [2]; CHO GLP-1R clone C6, cAMP HTRF): 910 nM
Emax (human GLP-1R [2]): 94%

N#Cc1ccc(COc2cccc(N3CCN(Cc4nc5ccc(C(=O)O)cc5n4C[C@@H]4CCO4)CC3)n2)c(F)c1 [Compound 108B, 2-[(4-{6-[(4-cyano-2-fluorobenzyl)oxy]pyridin-2-yl}piperazin-1-yl)methyl]-1-[(2S)-oxetan-2-ylmethyl]-1H-benzimidazole-6-carboxylic acid]
EC50 (human GLP-1R [1]; CHO GLP-1R clone H6, cAMP HTRF): 16 nM
Emax (human GLP-1R [1]): 85%
EC50 (human GLP-1R [2]; CHO GLP-1R clone C6, cAMP HTRF): 320 nM
Emax (human GLP-1R [2]): 88%

N#Cc1ccc(COc2cccc(C3CCN(Cc4nc5ccc(C(=O)O)cc5n4C[C@H]4CCO4)CC3)n2)c(F)c1 [Compound 111B, 2-[(4-{6-[(4-cyano-2-fluorobenzyl)oxy]pyridin-2-yl}piperidin-1-yl)methyl]-1-[(2R)-oxetan-2-ylmethyl]-1H-benzimidazole-6-carboxylic acid]
Emax (human GLP-1R [1]): 75%
Emax (human GLP-1R [2]): 67%

[2H]C([2H])(Oc1cccc(C2CCN(Cc3nc4ccc(C(=O)O)cc4n3C[C@@H]3CCO3)CC2)n1)c1ccc(C#N)cc1F [Compound 112B, 2-{[4-(6-{[(4-cyano-2-fluorophenyl)(methyl-d2)]oxy}pyridin-2-yl)piperidin-1-yl]methyl}-1-[(2S)-oxetan-2-ylmethyl]-1H-benzimidazole-6-carboxylic acid]
Emax (human GLP-1R [1]): 84%
Emax (human GLP-1R [2]): 70%

N#Cc1ccc(COc2nc(C3CCN(Cc4nc5ccc(C(=O)O)cc5n4C[C@@H]4CCO4)CC3)ccc2F)c(F)c1 [Compound 113B, 2-[(4-{6-[(4-cyano-2-fluorobenzyl)oxy]-5-fluoropyridin-2-yl}piperidin-1-yl)methyl]-1-[(2S)-oxetan-2-ylmethyl]-1H-benzimidazole-6-carboxylic acid]
EC50 (human GLP-1R [1]; CHO GLP-1R clone H6, cAMP HTRF): 3.9 nM
Emax (human GLP-1R [1]): 82%
EC50 (human GLP-1R [2]; CHO GLP-1R clone C6, cAMP HTRF): 45 nM
Emax (human GLP-1R [2]): 82%

N#Cc1ccc(COc2cccc(C3CCN(Cc4nc5ccc(C(=O)O)nc5n4C[C@@H]4CCO4)CC3)n2)c(F)c1 [Compound 114B, 2-[(4-{6-[(4-cyano-2-fluorobenzyl)oxy]pyridin-2-yl}piperidin-1-yl)methyl]-3-[(2S)-oxetan-2-ylmethyl]-3H-imidazo[4,5-b]pyridine-5-carboxylic acid]
EC50 (human GLP-1R [1]; CHO GLP-1R clone H6, cAMP HTRF): 7.1 nM
Emax (human GLP-1R [1]): 81%
EC50 (human GLP-1R [2]; CHO GLP-1R clone C6, cAMP HTRF): 120 nM
Emax (human GLP-1R [2]): 85%

C[C@H]1CN(c2cccc(OCc3ccc(C#N)cc3F)n2)CCN1Cc1nc2ccc(C(=O)O)cc2n1C[C@@H]1CCO1 [Compound 115B, 2-{[(2S)-4-{6-[(4-cyano-2-fluorobenzyl)oxy]pyridin-2-yl}-2-methylpiperazin-1-yl]methyl}-1-[(2S)-oxetan-2-ylmethyl]-1H-benzimidazole-6-carboxylic acid]
EC50 (human GLP-1R [1]; CHO GLP-1R clone H6, cAMP HTRF): 0.95 nM
Emax (human GLP-1R [1]): 92%
EC50 (human GLP-1R [2]; CHO GLP-1R clone C6, cAMP HTRF): 17 nM
Emax (human GLP-1R [2]): 120%

O=C(O)c1ccc2nc(CN3CCC(c4cccc(OCc5ccc(Cl)cc5F)n4)CC3)n(C[C@@H]3CCCO3)c2c1 [Compound 116B, 2-[(4-{6-[(4-chloro-2-fluorobenzyl)oxy]pyridin-2-yl}piperidin-1-yl)methyl]-1-[(2S)-tetrahydrofuran-2-ylmethyl]-1H-benzimidazole-6-carboxylic acid]
EC50 (human GLP-1R [1]; CHO GLP-1R clone H6, cAMP HTRF): 930 nM
Emax (human GLP-1R [1]): 86%
EC50 (human GLP-1R [2]; CHO GLP-1R clone C6, cAMP HTRF): 9000 nM
Emax (human GLP-1R [2]): 100%

O=C(O)c1ccc2nc(CN3CCC(c4cccc(OCc5ccc(F)cc5F)n4)CC3)n(C[C@@H]3CCO3)c2c1 [Compound 117B, 2-[(4-{6-[(2,4-difluorobenzyl)oxy]pyridin-2-yl}piperidin-1-yl)methyl]-1-[(2S)-oxetan-2-ylmethyl]-1H-benzimidazole-6-carboxylic acid]
EC50 (human GLP-1R [1]; CHO GLP-1R clone H6, cAMP HTRF): 19 nM
Emax (human GLP-1R [1]): 76%
EC50 (human GLP-1R [2]; CHO GLP-1R clone C6, cAMP HTRF): 530 nM
Emax (human GLP-1R [2]): 97%

O=C(O)c1ccc2nc(CN3CCN(c4cccc(OCc5ccc(Cl)cc5F)n4)CC3)n(C[C@@H]3CCO3)c2n1 [Compound 120B, 2-[(4-{6-[(4-chloro-2-fluorobenzyl)oxy]pyridin-2-yl}piperazin-1-yl)methyl]-3-[(2S)-oxetan-2-ylmethyl]-3H-imidazo[4,5-b]pyridine-5-carboxylic acid]
EC50 (human GLP-1R [1]; CHO GLP-1R clone H6, cAMP HTRF): 47 nM
Emax (human GLP-1R [1]): 71%
EC50 (human GLP-1R [2]; CHO GLP-1R clone C6, cAMP HTRF): 1600 nM
Emax (human GLP-1R [2]): 81%

O=C(O)c1ccc2nc(CN3CCC(c4cccc(OCc5ccc(Cl)cc5F)n4)CC3)n(C[C@@H]3CCO3)c2n1 [Compound 122B, 2-[(4-{6-[(4-chloro-2-fluorobenzyl)oxy]pyridin-2-yl}piperidin-1-yl)methyl]-3-[(2S)-oxetan-2-ylmethyl]-3H-imidazo[4,5-b]pyridine-5-carboxylic acid]
EC50 (human GLP-1R [1]; CHO GLP-1R clone H6, cAMP HTRF): 1.5 nM
Emax (human GLP-1R [1]): 86%
EC50 (human GLP-1R [2]; CHO GLP-1R clone C6, cAMP HTRF): 14 nM
Emax (human GLP-1R [2]): 82%

N#Cc1ccc(COc2cccc(N3CCN(Cc4nc5ccc(C(=O)O)nc5n4C[C@@H]4CCO4)CC3)n2)c(F)c1 [Compound 123B, 2-[(4-{6-[(4-cyano-2-fluorobenzyl)oxy]pyridin-2-yl}piperazin-1-yl)methyl]-3-[(2S)-oxetan-2-ylmethyl]-3H-imidazo[4,5-b]pyridine-5-carboxylic acid]
EC50 (human GLP-1R [1]; CHO GLP-1R clone H6, cAMP HTRF): 2.4 nM
Emax (human GLP-1R [1]): 87%
EC50 (human GLP-1R [2]; CHO GLP-1R clone C6, cAMP HTRF): 45 nM
Emax (human GLP-1R [2]): 95%

N#Cc1ccc(COc2cccc(C3CCN(Cc4nc5ccc(C(=O)O)cc5n4C[C@@H]4CCCO4)CC3)n2)c(F)c1 [Compound 124B, 2-[(4-{6-[(4-cyano-2-fluorobenzyl)oxy]pyridin-2-yl}piperidin-1-yl)methyl]-1-[(2S)-tetrahydrofuran-2-ylmethyl]-1H-benzimidazole-6-carboxylic acid]
EC50 (human GLP-1R [1]; CHO GLP-1R clone H6, cAMP HTRF): 6.4 nM
Emax (human GLP-1R [1]): 90%
EC50 (human GLP-1R [2]; CHO GLP-1R clone C6, cAMP HTRF): 110 nM
Emax (human GLP-1R [2]): 94%

N#Cc1ccc(COc2nc(C3CCN(Cc4nc5ccc(C(=O)O)cc5n4C[C@@H]4CCO4)CC3)ccc2F)cc1 [Compound 127B, 2-[(4-{6-[(4-cyanobenzyl)oxy]-5-fluoropyridin-2-yl}piperidin-1-yl)methyl]-1-[(2S)-oxetan-2-ylmethyl]-1H-benzimidazole-6-carboxylic acid]
EC50 (human GLP-1R [1]; CHO GLP-1R clone H6, cAMP HTRF): 4.9 nM
Emax (human GLP-1R [1]): 77%
EC50 (human GLP-1R [2]; CHO GLP-1R clone C6, cAMP HTRF): 75 nM
Emax (human GLP-1R [2]): 83%

N#Cc1ccc(COc2cccc(C3CCN(Cc4nc5ccc(C(=O)O)cc5n4C[C@@H]4CCCO4)CC3)n2)cc1 [Compound 131B, 2-[(4-{6-[(4-cyanobenzyl)oxy]pyridin-2-yl}piperidin-1-yl)methyl]-1-[(2S)-tetrahydrofuran-2-ylmethyl]-1H-benzimidazole-6-carboxylic acid]
EC50 (human GLP-1R [1]; CHO GLP-1R clone H6, cAMP HTRF): 45 nM
Emax (human GLP-1R [1]): 65%
EC50 (human GLP-1R [2]; CHO GLP-1R clone C6, cAMP HTRF): 1000 nM
Emax (human GLP-1R [2]): 84%

N#Cc1ccc(COc2cccc(C3CCN(Cc4nc5ccc(C(=O)O)cc5n4C[C@H]4CCCO4)CC3)n2)cc1 [Compound 132B, 2-[(4-{6-[(4-cyanobenzyl)oxy]pyridin-2-yl}piperidin-1-yl)methyl]-1-[(2R)-tetrahydrofuran-2-ylmethyl]-1H-benzimidazole-6-carboxylic acid]
EC50 (human GLP-1R [1]; CHO GLP-1R clone H6, cAMP HTRF): 70 nM
Emax (human GLP-1R [1]): 80%
EC50 (human GLP-1R [2]; CHO GLP-1R clone C6, cAMP HTRF): 1800 nM
Emax (human GLP-1R [2]): 85%

C[C@H]1CN(c2ccc(F)c(OCc3ccc(F)cc3F)n2)CCN1Cc1nc2ccc(C(=O)O)cc2n1C[C@@H]1CCO1 [Compound 133B, 2-{[(2S)-4-{6-[(2,4-difluorobenzyl)oxy]-5-fluoropyridin-2-yl}-2-methylpiperazin-1-yl]methyl}-1-[(2S)-oxetan-2-ylmethyl]-1H-benzimidazole-6-carboxylic acid]
EC50 (human GLP-1R [1]; CHO GLP-1R clone H6, cAMP HTRF): 190 nM
Emax (human GLP-1R [1]): 91%
EC50 (human GLP-1R [2]; CHO GLP-1R clone C6, cAMP HTRF): 1400 nM
Emax (human GLP-1R [2]): 47%

C[C@H]1CN(c2cccc(OCc3ccc(F)cc3F)n2)CCN1Cc1nc2ccc(C(=O)O)cc2n1C[C@@H]1CCO1 [Compound 134B, 2-{[(2S)-4-{6-[(2,4-difluorobenzyl)oxy]pyridin-2-yl}-2-methylpiperazin-1-yl]methyl}-1-[(2S)-oxetan-2-ylmethyl]-1H-benzimidazole-6-carboxylic acid]
EC50 (human GLP-1R [1]; CHO GLP-1R clone H6, cAMP HTRF): 300 nM
Emax (human GLP-1R [1]): 92%
EC50 (human GLP-1R [2]; CHO GLP-1R clone C6, cAMP HTRF): 7700 nM
Emax (human GLP-1R [2]): 100%
